This is an account of results in US10946051B2, “Strain of Bifidobacterium animalis subsp. lactis CECT 8145 and use thereof for the treatment and/or prevention of excess weight and obesity and associated diseases” (priority 2013, dated 2021).

In this test the test system is strain BIF-1. The test can be described thus: Antibiotic resistance profile (minimum inhibitory concentration). It is filed as cell-based, Bifidobacterium animalis subsp. lactis. The protocol:
Specifically, the production of unwanted metabolites was evaluated: lactic acid isomer production (Table 9), bile-salt deconjugation (Table 10) and biogenic amine production (Table 11), and the antibiotic resistance profile (Table 12).

Where [1] appears, read: Bifidobacterium animalis, BIF1; read-out: CMI (minimum inhibitory concentration of antibiotics).

≈ marks a conversion by molar mass, not a printed value. Like-named read-outs stand apart in the source and are kept apart here.

As to `CC1(C)S[C@@H]2[C@H](NC(=O)[C@H](N)c3ccccc3)C(=O)N2[C@H]1C(=O)O` [Ampicillin], under setting [1], the MIC is 2 µg/mL (≈ 5.72 µM).
The same measure, in the same setting: in the case of `O=C(N[C@H](CO)[C@H](O)c1ccc([N+](=O)[O-])cc1)C(Cl)Cl` [Chloramphenicol] it was 4 µg/mL (≈ 12.4 µM); in that of `CC[C@H]1OC(=O)[C@H](C)[C@@H](O[C@H]2C[C@@](C)(OC)[C@@H](O)[C@H](C)O2)[C@H](C)[C@@H](O[C@@H]2O[C@H](C)C[C@H](N(C)C)[C@H]2O)[C@](C)(O)C[C@@H](C)C(=O)[C@H](C)[C@@H](O)[C@]1(C)O` [Erythromycin], 0.5 µg/mL (≈ 0.681 µM); in that of `NC[C@H]1O[C@H](O[C@H]2[C@H](O)[C@@H](O[C@H]3O[C@H](CO)[C@@H](O)[C@H](N)[C@H]3O)[C@H](N)C[C@@H]2N)[C@H](O)[C@@H](O)[C@@H]1O` [Kanamycin], 128 µg/mL (≈ 264 µM).
For the compound `[H]/N=C(/N)N[C@H]1[C@H](O)[C@@H](O)[C@H](O[C@@H]2O[C@@H](C)[C@](O)(C=O)[C@H]2O[C@@H]2O[C@@H](CO)[C@H](O)[C@@H](O)[C@@H]2NC)[C@@H](N/C(N)=N\[H])[C@@H]1O` [Streptomycin], the MIC under setting [1] amounted to 128 µg/mL (≈ 220 µM).
On the same count and under the same terms, in the case of `CN(C)[C@@H]1C(O)=C(C(N)=O)C(=O)[C@@]2(O)C(O)=C3C(=O)c4c(O)cccc4[C@@](C)(O)[C@H]3C[C@@H]12` [Tetracycline] it was 8 µg/mL (≈ 18 µM).
`CN[C@H](CC(C)C)C(=O)N[C@H]1C(=O)N[C@@H](CC(N)=O)C(=O)N[C@H]2C(=O)N[C@H]3C(=O)N[C@H](C(=O)N[C@H](C(=O)O)c4cc(O)cc(O)c4-c4cc3ccc4O)[C@H](O)c3ccc(c(Cl)c3)Oc3cc2cc(c3O[C@@H]2O[C@H](CO)[C@@H](O)[C@H](O)[C@H]2O[C@H]2C[C@](C)(N)[C@H](O)[C@H](C)O2)Oc2ccc(cc2Cl)[C@H]1O` [Vancomycin]: the MIC (Bifidobacterium animalis, BIF1, read-out: CMI (minimum inhibitory concentration of antibiotics)) is 1 µg/mL (≈ 0.69 µM).
As to Gentamicin, under “obtained for strain BIF-1”, the “CMI (minimum inhibitory concentration of antibiotics)” value was 64 µg/mL.
